Results as given in patent US7618984B2, “Sulfonamide compound” (Asahi Kasei Pharma Corporation, priority 2005, dated 2009).

Columns and labels:
[1] = tested on: phosphorylation of myosin regulatory light chain; test: Inhibitory action on phosphorylation of myosin regulatory light chain (Test Example 1); type: cell-based; conditions: Neutrophil, 5 min; human peripheral blood neutrophils, 25° C. for 5 minutes; read-out: IC50, compound concentration providing a phosphorylation inhibition ratio of 50% (myosin regulatory light chain)
Protocol: A volume of 50 to 100 ml of peripheral blood collected from healthy volunteers was centrifuged by using Mono-Poly separator solution (Dainippon Pharmaceutical) to prepare a neutrophil containing fraction. The neutrophils were washed with PBS(−) and resuspended in Hanks' Balanced Salt Solution (HBSS+, Gibco) to prepare a cell suspension (8×10^6/ml). The cell suspension was diluted to 5×10^6/ml, introduced into Eppendorf tubes in a volume of 0.4 ml each, then 0.1 ml each of solutions of a test compound at various concentrations were added to the suspension and allowed to react at 25° C. for 5 minutes. After the reaction, 0.1 ml of trichloroacetic acid solution was added to each reaction mixture, the reaction mixture was gently shaken and centrifuged at 12,000 rpm (4° C., 5 minutes), and the supernatant was removed. Subsequently, 3 μl of 1 M Tris solution was added to the residue, the mixture was further mixed with 50 μl of extraction buffer (8 M urea, 0.02% 2-mercaptoethanol, 0.002% bromophenol blue) and left stand at room temperature for 1 hour. Then, the reaction mixture was loaded on a spin column (0.45 μm, Millipore) to remove the insoluble solids and a sample buffer for SDS polyacrylamide gel electrophoresis (25 mM, Tris-HCl pH 6.8, 2.5% 2-mercaptoethanol, 2% sodium dodecylsulfate, 5% sucrose, 0.002% bromophenol blue as final concentrations) was added, and 10 μl of each sample was subjected to electrophoresis.
The gel after the electrophoresis was blotted on a nitrocellulose membrane (BioRad), blocked with 5% skim milk, and reacted successively with antibodies pLC1 (Sakurada K. et al, Am. J. Physiol., 274, C1563-C1572 (1998)), which specifically recognize the phosphorylated myosin regulatory light chain, and donkey anti-mouse IgG (Chemicon) conjugated with horseradish peroxidase. The band of the phosphorylated myosin regulatory light chain was detected on a film by using ECL Plus Kit (Amersham Pharmacia Biotech). This band was subjected to quantification using a densitometer. By using this value, the inhibitory ratio (%) for phosphorylation of the myosin regulatory light chain was calculated by using the following equation. Phosphorylation inhibition ratio(%)=1−(Band intensity of phosphorylated myosin regulatory light chain with addition of the test compound/Band intensity of phosphorylated myosin regulatory light chain without addition of the test compound)×100
Further, the phosphorylation inhibition ratio was calculated with changing the concentrations of the test compound, and a compound concentration providing an inhibition ratio of 50% was obtained as IC50.

[2] = tested on: rabbit intraocular pressure; test: Rabbit intraocular pressure reduction enhancing action, combination with timolol maleate (Test Example 6-2); type: in vivo, Japanese white rabbit; conditions: 0.01 weight % 19-1 compound aqueous solution and/or timolol maleate (Timoptol), 50 μL; difference relative to the control group, 1, 2 and 4 hours
Protocol: As a test compound, the 19-1 compound was dissolved in physiological saline, and the solution was neutralized by addition of sodium hydroxide (pH 7.0 to 8.0) to prepare a 0.01 weight % aqueous solution (19-1 compound aqueous solution). As a drug for combination use, timolol maleate (trade name: Timoptol, Santen Pharmaceutical) was used as an adrenergic receptor β blocker, as the marketed formulation as it was.
A Japanese white rabbit having a body weight of about 2 kg was placed in a positioner and naturalized for one week before the experiment. An opthalmologic local anesthesant (Benoxil) was administered to both eyes, and then intraocular pressure before instillation was measured by using a tonometer (Classic 30, Solan). […] The intraocular pressure thereafter was measured for each group 1, 2 and 4 hours after the second administration of the test compound, and the difference of the measured values at each measurement time for the each group and the control group was considered an intraocular pressure reduction value of each group. The largest difference of the intraocular pressure values relative to the control group among those of the measured values of the measurement times was considered the maximum intraocular pressure reduction value (max ΔIOP) of each drug group.

[3] = tested on: monkey intraocular pressure; test: Intraocular pressure reduction enhancing action in monkey (Test Example 7); type: in vivo; conditions: cynomolgus monkey
Protocol: Moreover, as for the test compound used for combination use, similar effect can be obtained also with the compounds of the present invention represented with the example numbers mentioned in Test Example 2. The test is performed by using cynomolgus monkeys sufficiently naturalized for the operation of fixation on a monkey chair and ophathalmotonometry.
As the test compound, the 19-1 compound is dissolved in physiological saline, and the solution is neutralized by addition of sodium hydroxide (pH 7.0 to 8.0) to prepare a 0.01 weight % aqueous solution (19-1 compound aqueous solution). As a drug for combination use, latanoprost (trade name: Xalatan, Pfizer) is used as the marketed formulation per se. The test aqueous solution or the drug for combination use is instilled to the left eye, and the right eye is not treated (control eye). […] After initial intraocular pressure values of the monkeys are measured for each group, 30 μL of physiological saline is instilled to the control group, single drug group 1, and single drug group 2, and latanoprost is instilled in the same volume to the combination use group. […] Then, the intraocular pressure is measured over time for each group.

- IC50 [1]: < 10 µM
Compound: N[C@H]1CCN(S(=O)(=O)c2cccc3cncc(Cl)c23)C1 [Example 19-1, (S)-3-Amino-1-(4-chloro-5-isoquinolinesulfonyl)pyrrolidine]
- Max ΔIOP (maximum intraocular pressure reduction value), Table 4 [2]: 4.1 mmHg
- intraocular pressure reducing action in the single drug group 1 ([3]; 0.01 weight % aqueous solution, 30 μL): exceeding that of the control group
- intraocular pressure reducing action in the combination use group ([3]; latanoprost (Xalatan) 30 μL, 5 minutes later 19-1 compound aqueous solution 30 μL): exceeding those of both the single drug group 1 and single drug group 2
